Broadly, the IC50 is the point on the concentration scale where inhibition reaches its midpoint.

We go through 3 compounds from ChEMBL document CHEMBL4765227, “Hit to lead optimization of a series of N-[4-(1,3-benzothiazol-2-yl)phenyl]acetamides as monoacylglycerol lipase inhibitors with potential anticancer activity” (Eur J Med Chem, 2016).

The test system of one test is A549. As to the kind of experiment: Growth inhibition of human A549/ATCC cells at 10 uM incubated for 48 hrs by sulforhodamine B assay relative to control. It is filed as functional. Particulars: read-out: GI.
For another test, the system named is HOP-62. Briefly: Growth inhibition of human HOP-62 cells at 10 uM incubated for 48 hrs by sulforhodamine B assay relative to control. It is filed as functional. The note with it: read-out: GI. In general terms: The SRB assay estimates cell density from bound dye.
The next test has as its system SK-MEL-2. Briefly: Growth inhibition of human SK-MEL-2 cells at 10 uM incubated for 48 hrs by sulforhodamine B assay relative to control. It counts as functional. Particulars: read-out: GI.
A further test concerns SR. Briefly: Growth inhibition of human SR cells at 10 uM incubated for 48 hrs by sulforhodamine B assay relative to control. It is filed as functional. Particulars: read-out: GI.
A further test concerns RPMI-8226. Briefly: Growth inhibition of human RPMI-8226 cells at 10 uM incubated for 48 hrs by sulforhodamine B assay relative to control. It is filed as functional. The note with it: read-out: GI.
A further test relates to 786-0. As to the kind of experiment: Growth inhibition of human 786-0 cells at 10 uM incubated for 48 hrs by sulforhodamine B assay relative to control. It is filed as functional. The note with it: read-out: GI.
Another test concerns EKVX. Briefly: Growth inhibition of human EKVX cells at 10 uM incubated for 48 hrs by sulforhodamine B assay relative to control. It is filed as functional. Particulars: read-out: GI.
The next test has as its system NCI-H322M. As to the kind of experiment: Growth inhibition of human NCI-H322M cells at 10 uM incubated for 48 hrs by sulforhodamine B assay relative to control. It is filed as functional. The note with it: read-out: GI.
In another test the test system is U-251. As to the kind of experiment: Growth inhibition of human U-251 cells at 10 uM incubated for 48 hrs by sulforhodamine B assay relative to control. It counts as functional. Particulars: read-out: GI.
The subject of a further test is ACHN. Briefly: Growth inhibition of human ACHN cells at 10 uM incubated for 48 hrs by sulforhodamine B assay relative to control. It counts as functional. Particulars: read-out: GI.
Another test relates to NCI-H460. As to the kind of experiment: Growth inhibition of human NCI-H460 cells at 10 uM incubated for 48 hrs by sulforhodamine B assay relative to control. It counts as functional. The note with it: read-out: GI.
The subject of another test is SW-620. Briefly: Growth inhibition of human SW-620 cells at 10 uM incubated for 48 hrs by sulforhodamine B assay relative to control. It counts as functional. Particulars: read-out: GI.
The next test concerns SK-OV-3. As to the kind of experiment: Growth inhibition of human SK-OV-3 cells at 10 uM incubated for 48 hrs by sulforhodamine B assay relative to control. It is filed as functional. Particulars: read-out: GI.
Another test concerns the target T1, Monoglyceride lipase (Homo sapiens, UniProt Q99685).
T1 sequence (Q99685 whole entry): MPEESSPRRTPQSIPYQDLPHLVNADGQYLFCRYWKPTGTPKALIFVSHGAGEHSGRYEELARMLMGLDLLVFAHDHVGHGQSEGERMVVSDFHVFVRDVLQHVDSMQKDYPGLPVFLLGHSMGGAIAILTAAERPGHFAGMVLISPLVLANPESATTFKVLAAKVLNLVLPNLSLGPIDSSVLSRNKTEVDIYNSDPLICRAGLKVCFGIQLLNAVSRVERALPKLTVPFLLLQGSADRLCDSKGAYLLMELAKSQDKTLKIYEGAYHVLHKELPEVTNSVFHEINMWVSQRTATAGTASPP
Briefly: Inhibition of human MAGL using 4-Nitrophenylacetate as substrate.

A further test relates to CAKI-1. As to the kind of experiment: Growth inhibition of human CAKI-1 cells at 10 uM incubated for 48 hrs by sulforhodamine B assay relative to control. It is filed as functional. The note with it: read-out: GI.
In the next test the test system is T47D. As to the kind of experiment: Growth inhibition of human T47D cells at 10 uM incubated for 48 hrs by sulforhodamine B assay relative to control. It counts as functional. Particulars: read-out: GI.
Another test relates to A498. As to the kind of experiment: Growth inhibition of human A498 cells at 10 uM incubated for 48 hrs by sulforhodamine B assay relative to control. It counts as functional. The note with it: read-out: GI.

On to `O=C(CN1C(=O)C(=O)c2ccccc21)Nc1ccc(-c2nc3ccccc3s2)cc1`, for which the inhibition of growth at 10 µM in the test with A549 was 2.72%; in the test on HOP-62, -12.7%; in the test with SK-MEL-2 it was 0.87%; in the test on SR, 15.2%; in the test with RPMI-8226, 15%; in the test with 786-0, -6.97%. Moreover, the inhibition of growth at 10 µM was 14.2% with EKVX; -0.03% in the test with NCI-H322M; 8.34% in the test on U-251; -0.81% with ACHN; -2.87% in the test with NCI-H460; -0.74% with SW-620. In addition, the inhibition of growth at 10 µM was -10.3% in the test on SK-OV-3, -1.81% in the test with CAKI-1, 29.4% with T47D and 10.7% with A498. The compound also showed an IC50 against Monoglyceride lipase above 100 µM.
Take `O=C(CN(c1ccccc1)c1ccccc1)Nc1ccc(-c2nc3ccccc3s2)cc1`: the inhibition of growth at 10 µM was -5.7% with A549; -5.28% with HOP-62; -0.42% in the test on SK-MEL-2; 2.68% in the test with SR; -15.6% in the test with RPMI-8226; -1.87% in the test on 786-0. In addition, the inhibition of growth at 10 µM in the test on EKVX was -9.19%; with NCI-H322M, -4.73%; in the test with U-251, -5.92%; with ACHN, -13.4%; with NCI-H460, -0.29%; in the test with SW-620, -3.33%. The inhibition of growth at 10 µM in the test on SK-OV-3 was -11.4%; in the test on CAKI-1, 0.37%; in the test with T47D, 13.6%; with A498, 6.91%. In addition, the IC50 against Monoglyceride lipase is above 100 µM.
`O=C(Cn1c2ccccc2c2ccccc21)Nc1ccc(-c2nc3ccccc3s2)cc1`: the inhibition of growth at 10 µM in the test on A549 is 0.89%; with HOP-62 it was -0.99%; with SK-MEL-2, -0.88%; in the test on SR it was 15.7%; in the test on RPMI-8226, -18%; in the test on 786-0, -1.17%. Moreover, the inhibition of growth at 10 µM is -3.36% with EKVX; -5.2% with NCI-H322M; 6.01% with U-251; -4.15% with ACHN; -1.93% in the test with NCI-H460; -2.44% with SW-620. Further, the inhibition of growth at 10 µM with SK-OV-3 was -7.77%; with CAKI-1, 1.03%; with T47D it was 15.5%; with A498 it was 9.51%. Besides, the IC50 on Monoglyceride lipase was above 100 µM.
